How the values were obtained:
[1] = test system: T-cell; test: Inhibitory activity against murine immune-system T-cells stimulated with concanavalin-A at 100 ng/ml; format: functional, Mus musculus
[2] = test system: T-cell; test: Inhibitory activity against murine immune-system T-cells stimulated with concanavalin-A at 10 ng/ml; format: functional, Mus musculus
[3] = test system: Plakortis simplex; test: In vitro immunosuppressors activity against P. simplex; Potent; format: functional, organism-based

Structure (SMILES)	Proliferation [1]	Proliferation [2]	Activity [3]
CCCCCCCCCCCCCCCCCC(CCCCCCCCCCCCCCC(C)C)O[C@@H]1O[C@@H](CO)[C@H](O[C@H]2O[C@@H](CO)[C@@H](O)[C@H](O)[C@@H]2O)[C@H](O)[C@@H]1O (stereo partly specified)	79%	43%	
CCCCCCCCCCCCCCCCC(CCCCCCCCCCCCCCC(C)C)O[C@@H]1O[C@@H](CO)[C@H](O[C@H]2O[C@@H](CO)[C@@H](O)[C@H](O)[C@@H]2O)[C@H](O)[C@@H]1O (stereo partly specified)	79%	43%	
CCCCCCCCCCCCCCCCCCC(CCCCCCCCCCCCCCC(C)C)O[C@@H]1O[C@@H](CO)[C@H](OC2O[C@@H](CO)[C@@H](O)[C@H](O)[C@@H]2O)[C@H](O)[C@@H]1O (stereo partly specified)	79%	43%	
CCC(C)CCCCCCCCCCCCCCC(CCCCCCCCCCCCCCC(C)C)O[C@@H]1O[C@@H](CO)[C@H](O[C@H]2O[C@@H](CO)[C@@H](O)[C@H](O)[C@@H]2O)[C@H](O)[C@@H]1O (stereo partly specified)	79%	43%	
CCCCCCCCCCCCCCCCC(CCCCCCCCCCCCCCCC)O[C@@H]1O[C@@H](CO)[C@H](O[C@H]2O[C@@H](CO)[C@@H](O)[C@H](O)[C@@H]2O)[C@H](O)[C@@H]1O	79%	43%	
CCC(C)CCCCCCCCCCCCCCC(CCCCCCCCCCCCCCC(C)CC)O[C@@H]1O[C@@H](CO)[C@H](OC2O[C@@H](CO)[C@@H](O)[C@H](O)[C@@H]2O)[C@H](O)[C@@H]1O (stereo partly specified)	79%	43%	
CCCCCCCCCCCCCCCCC(CCCCCCCCCCCCCCC(C)CC)O[C@@H]1O[C@@H](CO)[C@H](O[C@H]2O[C@@H](CO)[C@@H](O)[C@H](O)[C@@H]2O)[C@H](O)[C@@H]1O (stereo partly specified)	79%	43%	
CCCCCCCCCCCCCCCCCC(CCCCCCCCCCCCCCCCC)O[C@@H]1O[C@@H](CO)[C@H](O[C@H]2O[C@@H](CO)[C@@H](O)[C@H](O)[C@@H]2O)[C@H](O)[C@@H]1O	79%	43%	
CCCCCCCCCCCCCCCCCCC(CCCCCCCCCCCCCCCC)O[C@@H]1O[C@@H](CO)[C@H](O[C@H]2O[C@@H](CO)[C@@H](O)[C@H](O)[C@@H]2O)[C@H](O)[C@@H]1O (stereo partly specified)	79%	43%	
CCCCCCCCCCCCCCCCCCC(CCCCCCCCCCCCCCCCC)O[C@@H]1O[C@@H](CO)[C@H](OC2O[C@@H](CO)[C@@H](O)[C@H](O)[C@@H]2O)[C@H](O)[C@@H]1O (stereo partly specified)	79%	43%	
CC(C)CCCCCCCCCCCCCCC(CCCCCCCCCCCCCCC(C)C)O[C@@H]1O[C@@H](CO)[C@H](O[C@H]2O[C@@H](CO)[C@@H](O)[C@H](O)[C@@H]2O)[C@H](O)[C@@H]1O	79%	43%	
CCCCCCCCCCCCCCCCCC(CCCCCCCCCCCCCCC(C)CC)O[C@@H]1O[C@@H](CO)[C@H](O[C@H]2O[C@@H](CO)[C@@H](O)[C@H](O)[C@@H]2O)[C@H](O)[C@@H]1O (stereo partly specified)	79%	43%	
CCCCCCCCCCCCCCCCCCC(CCCCCCCCCCCCCCCCCC)O[C@@H]1O[C@@H](CO)[C@H](O[C@H]2O[C@@H](CO)[C@@H](O)[C@H](O)[C@@H]2O)[C@H](O)[C@@H]1O	79%	43%	
CCCCCCCCCCCCCCCCCCC(CCCCCCCCCCCCCCC(C)CC)O[C@@H]1O[C@@H](CO)[C@H](O[C@H]2O[C@@H](CO)[C@@H](O)[C@H](O)[C@@H]2O)[C@H](O)[C@@H]1O (stereo partly specified)	79%	43%	
CCCCCCCCCCCCCCCCCC(CCCCCCCCCCCCCCCC)O[C@@H]1O[C@@H](CO)[C@H](O[C@H]2O[C@@H](CO)[C@@H](O)[C@H](O)[C@@H]2O)[C@H](O)[C@@H]1O (stereo partly specified)	79%	43%	
CCCCCCCCCCCC1CC1CCCCC/C=C/CC[C@@H](O)[C@H](CO[C@@H]1O[C@@H](CO)[C@H](O)[C@H](O)[C@@H]1OCC=C(C)C)NC(=O)[C@H](O)CC/C=C\CCCCC1CC1CCCCCCCCCC (stereo partly specified)			Potent
